Values quoted from earlier work in publication PMC7377376, “Drug targeting CYP2E1 for the treatment of early-stage alcoholic steatohepatitis” (PLoS ONE, 2020).

Columns and labels:
CYP2E1 = settings: cited from earlier work
cholesterol synthesis = tested on: cholesterol synthesis; design: method as in printed; settings: high concentrations (> or =1.0 mmol/L); ref not given; cited from earlier work

## O=C(O)CCCCCCCCCCCn1ccnc1 [12 (imidazolyl) dodecanoic acids, 12-(imidazolyl)-dodecanoic acid]
CYP2E1; ref Porubsky, Battaile et al. 2010
  affinity to CYP2E1 compared to other ω imidazolyl alkanoic acids (in words): highest affinity

## C=CCSSCC=C [Diallyl disulfide (DADS), Diallyl disulfide]
Cholesterol synthesis
  cholesterol synthesis (in words): abolished

## O=C(O)CCCCCn1ccnc1 [ω-imidazolylhexanoic acid]
CYP2E1
  spin shift: missing spin shift
